Experiment in all cases: MIC, broth micro-dilution technique (CLSI)
On the technique in general: In broth dilution the organism is exposed to a series of concentrations in liquid medium.

The subject of assay [1] is Escherichia coli MC4100 harboring the IMP4213. Type of assay: cell-based. To be noted: for MIC: Escherichia coli, 22 h. A digest of the protocol:
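Cation-adjusted MHB + 0.002% Tween-80; 10-point 2-fold series starting 64 μg/ml (modified protocol: 4 μg/mL). Final inoculum OD600 0.0005; 35° C, 22 h. MIC per CLSI M07-A8 broth microdilution.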

The subject of assay [2] is Methicillin Resistant Staphylococcus aureus strain USA 300 (NRS384). Type of assay: cell-based. The conditions noted are these: for MIC: Staphylococcus aureus, 22 h, read-out: MIC (μg/mL) S. aureus. A digest of the protocol:
(§1)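 CLSI broth microdilution in cation-adjusted Mueller Hinton broth with 0.002% v/v Tween-80. Compounds were serially 2-fold diluted over 10 concentrations from 64 μg/ml, or from 4 μg/mL in a modified protocol; inoculum at final OD600 0.0005, incubated 35° C for 22 hours.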

A further assay concerns MRSA COL (NRS100). The assay is classed as cell-based, Staphylococcus aureus. To be noted: for MIC: Staphylococcus aureus, 22 h, read-out: MIC (μg/mL) (COL). The method, boiled down:
as §1

Setting [3] is: read-out: MIC (μg/mL) E. coli, Table 2 modified protocol: serial 2-fold dilutions starting from 4 μg/mL, 35° C., 22 hours.
Where [4] appears, read: read-out: MIC (μg/mL) E. coli, Table 1 protocol: serial 2-fold dilutions starting from 64 μg/ml, 35° C., 22 hours.
Setting [5] is: Table 1 protocol: serial 2-fold dilutions starting from 64 μg/ml, 35° C., 22 hours.
Setting [6] is: Table 2 modified protocol: serial 2-fold dilutions starting from 4 μg/mL, 35° C., 22 hours.

Values after ≈ are worked out from the molar mass of the structure shown. Where two headings read alike, the source gives them in different places.

Turning to `CCCCc1ccc(-c2ccc(C(=O)N[C@@H](CCCN)C(=O)N(C)[C@@H]3C(=O)N[C@@H](C)C(=O)N[C@H](C(N)=O)Cc4ccc(OCCN)c(c4)-c4cc3ccc4OCCN)cc2)cc1` [Compound 335], the MIC turned out to be 0.13 µg/mL (≈ 0.153 µM) in assay [1] (setting [3]), 0.19 µg/mL (≈ 0.224 µM) in assay [2] and 0.063 µg/mL (≈ 0.0742 µM) with MRSA COL (NRS100).
With `C[C@@H]1NC(=O)[C@@H](N(C)C(=O)[C@H](CCCCN)NC(=O)c2ccc(/C=C/c3ccccc3)cc2)c2ccc(OCCN)c(c2)-c2cc(ccc2OCCN)C[C@@H](C(=O)O)NC1=O` [Compound 281], the MIC came to 0.25 µg/mL (≈ 0.3 µM) in assay [1] (setting [3]), 3 µg/mL (≈ 3.6 µM) in assay [2] and 1 µg/mL (≈ 1.2 µM) in the assay with MRSA COL (NRS100).
Turning to `C[C@@H]1NC(=O)[C@@H](N(C)C(=O)[C@H](CCCCN)NC(=O)c2ccc(-c3ccc(Cl)cc3)cc2)c2ccc(OCCN)c(c2)-c2cc(ccc2OCCN)C[C@@H](C(=O)NCB(O)O)NC1=O` [Compound 311], the MIC in assay [1] (setting [4]) is 0.19 µg/mL (≈ 0.211 µM); in assay [2], 1.5 µg/mL (≈ 1.67 µM); in the assay with MRSA COL (NRS100), 0.13 µg/mL (≈ 0.145 µM).
On to `CCCCc1ccc(-c2ccc(C(=O)N[C@@H](CCCCN)C(=O)N(C)[C@@H]3C(=O)N[C@@H](C)C(=O)N[C@H](C(=O)NCc4nnn[nH]4)Cc4ccc(O)c(c4)-c4cc3ccc4OCCN)cc2)cc1` [Compound 329], for which the values for the MIC (in assay [1] (read-out: MIC (μg/mL) E. coli); in assay [2]; in the assay with MRSA COL (NRS100)) were 0.38 µg/mL (≈ 0.421 µM), more than 4 µg/mL and 2 µg/mL (≈ 2.22 µM), respectively.
On to `CC(=O)[C@H](C)NC(=O)[C@@H]1Cc2ccc(O)c(c2)-c2cc(ccc2OCCNCC(=O)O)[C@H](N(C)C(=O)[C@H](CCCCN)NC(=O)c2ccc(-c3ccc(Cl)cc3)cc2)C(=O)N[C@@H](C)C(=O)N1` [Compound 205], for which the MIC in assay [1] (setting [4]) came out at 32 µg/mL (≈ 34.5 µM); in assay [2] (setting [5]), 32 µg/mL (≈ 34.5 µM); with MRSA COL (NRS100) (setting [5]), 6 µg/mL (≈ 6.48 µM).
In the case of `CC(=O)[C@H](C)NC(=O)[C@@H]1Cc2ccc(O)c(c2)-c2cc(ccc2OCCN)[C@H](N(C)C(=O)[C@H](CCCCN)NC(=O)c2ccc(-c3ccc(Cl)cc3)cc2)C(=O)N[C@@H](C)C(=O)N1` [Compound 119], the MIC in assay [1] (setting [4]) amounted to 5.3 µg/mL (≈ 6.1 µM); in assay [2], 1 µg/mL (≈ 1.15 µM); in the assay on MRSA COL (NRS100) it was 0.5 µg/mL (≈ 0.576 µM).
Turning to `CC(=O)[C@H](C)NC(=O)[C@@H]1Cc2ccc(O)c(c2)-c2cc(ccc2O)[C@H](N(C)C(=O)[C@H](CCCCN)NS(=O)(=O)c2ccc(-c3ccc(Cl)cc3)cc2)C(=O)N[C@@H](C)C(=O)N1` [Compound 223], the MIC in assay [1] (setting [4]) turned out to be 32 µg/mL (≈ 37.1 µM); in assay [2] (setting [5]), 0.71 µg/mL (≈ 0.824 µM); in the assay on MRSA COL (NRS100) (setting [5]) it was 2 µg/mL (≈ 2.32 µM).
Take `CCCCCCCCc1ccc(C(=O)N[C@@H](CCCN)C(=O)N(C)[C@@H]2C(=O)N[C@@H](C)C(=O)N[C@H](C(=O)N[C@@H](C)B3O[C@@H]4C[C@@H]5C[C@@H](C5(C)C)[C@]4(C)O3)Cc3ccc(OC)c(c3)-c3cc2ccc3OC)cc1` [Compound 319]: the MIC in assay [1] (setting [4]) was determined as 0.75 µg/mL (≈ 0.768 µM); in assay [2], 2 µg/mL (≈ 2.05 µM); in the assay with MRSA COL (NRS100), 1 µg/mL (≈ 1.02 µM).
For the compound `C[C@@H]1NC(=O)[C@@H](N(C)C(=O)[C@H](CCCCN)NC(=O)c2ccc(-c3ccc(C(C)(C)C)cc3)cc2)c2ccc(OCCN)c(c2)-c2cc(ccc2OCCN)C[C@@H](C(=O)O)NC1=O` [Compound 278], the values for the MIC (in assay [1] (setting [3]); in assay [2]; with MRSA COL (NRS100)) were 0.031 µg/mL (≈ 0.0359 µM), 0.25 µg/mL (≈ 0.289 µM) and 0.094 µg/mL (≈ 0.109 µM), respectively.
For `C[C@H](NC(=O)[C@@H]1Cc2ccc(O)c(c2)-c2cc(ccc2OCCN)[C@H](N(C)C(=O)[C@H](CCCCN)NC(=O)c2ccc(-c3ccc(Cl)cc3)cc2)C(=O)N[C@@H](C)C(=O)N1)B1O[C@@H]2C[C@@H]3C[C@@H](C3(C)C)[C@]2(C)O1` [Compound 313], the MIC in assay [1] (setting [4]) was 1 µg/mL (≈ 0.996 µM); in assay [2], 2 µg/mL (≈ 1.99 µM); in the assay with MRSA COL (NRS100), 0.38 µg/mL (≈ 0.378 µM).
Turning to `C[C@@H]1NC(=O)[C@@H](N(C)C(=O)[C@H](CCCCN)NC(=O)c2ccc(-c3ccccc3Cl)cc2)c2ccc(OCCN)c(c2)-c2cc(ccc2OCCN)C[C@@H](C(=O)O)NC1=O` [Compound 283], the MIC in assay [1] (setting [3]) was 1 µg/mL (≈ 1.19 µM); in assay [2], 4 µg/mL (≈ 4.75 µM); with MRSA COL (NRS100), 1.5 µg/mL (≈ 1.78 µM).
For `C[C@@H]1NC(=O)[C@@H](N(C)C(=O)[C@H](CCCCN)NC(=O)c2ccc(-c3ccc(Cl)cc3)cc2)c2ccc(O)c(c2)-c2cc(ccc2O)C[C@@H](C(=O)N[C@@H](C)C(=O)N(C)[C@@H](CC(=O)O)C(N)=O)NC1=O` [Compound 158], the MIC in assay [1] (setting [4]) came to 64 µg/mL (≈ 67 µM); in assay [2] it was 23 µg/mL (≈ 24.1 µM); in the assay on MRSA COL (NRS100), 8 µg/mL (≈ 8.37 µM).
On to `CCCCc1ccc(-c2ccc(C(=O)N[C@@H](CCCN)C(=O)N(C)[C@@H]3C(=O)N[C@@H](C)C(=O)N[C@H](C(=O)NCC(=O)O)Cc4ccc(OCCN)c(c4)-c4cc3ccc4OCCN)cc2)cc1` [Compound 334], for which the values for the MIC (in assay [1] (setting [3]); in assay [2] (setting [6]); in the assay on MRSA COL (NRS100) (setting [6])) were 0.13 µg/mL (≈ 0.143 µM), 1 µg/mL (≈ 1.1 µM) and 0.38 µg/mL (≈ 0.419 µM), respectively.
In the case of `CCCCCCCCCCNCCS(=O)(=O)N[C@@H](CCCCN)C(=O)N(C)[C@@H]1C(=O)N[C@@H](C)C(=O)N[C@H](C(=O)O)Cc2ccc(O)c(c2)-c2cc1ccc2O` [Compound 214], the MIC in assay [1] (setting [4]) was 64 µg/mL (≈ 81.1 µM); in assay [2], 2.8 µg/mL (≈ 3.55 µM); in the assay with MRSA COL (NRS100) it was 0.75 µg/mL (≈ 0.951 µM).
As to `CCCCCCCCCC(=O)N[C@@H](CO)C(=O)N(C)[C@@H]1C(=O)N[C@@H](C)C(=O)N[C@H](C(=O)N[C@@H](C)C(C)=O)Cc2ccc(OCCN)c(c2)-c2cc1ccc2OCCN.O=CO` [Compound 264], the “MIC (μg/mL) E. coli” value in assay [1] (setting [6]) is more than 4 µg/mL. Besides, the “MIC (μg/mL) S. aureus” value in assay [2] (setting [6]) was 2 µg/mL. In the assay with MRSA COL (NRS100) (setting [6]), the “MIC (μg/mL) (COL)” value was 0.75 µg/mL.
`C[C@@H]1NC(=O)[C@@H](N(C)C(=O)[C@H](CCCCN)NC(=O)c2ccc(-c3ccc(Cl)cc3)cc2)c2ccc(O)c(c2)-c2cc(ccc2O)C[C@@H](C(=O)N[C@@H](C)C(=O)c2ccccn2)NC1=O` [Compound 250]: the MIC in assay [1] (setting [4]) was determined as 64 µg/mL (≈ 72 µM); in assay [2] (setting [5]), 64 µg/mL (≈ 72 µM); in the assay with MRSA COL (NRS100) (setting [5]) it was 11 µg/mL (≈ 12.4 µM).
Regarding `CCCCc1ccc(-c2ccc(C(=O)N[C@@H](CCCN)C(=O)N(C)[C@@H]3C(=O)N[C@@H](C)C(=O)N[C@H](C(=O)O)Cc4ccc(OCCN)c(c4)-c4cc3ccc4OCCN)cc2)cc1` [Compound 295], the MIC in assay [1] (setting [4]) is 0.063 µg/mL (≈ 0.0741 µM); in assay [2] it was 0.19 µg/mL (≈ 0.224 µM); in the assay on MRSA COL (NRS100) it was 0.063 µg/mL (≈ 0.0741 µM).
As for `CC(NC(=O)[C@@H]1Cc2ccc(O)c(c2)-c2cc(ccc2O)[C@H](N(C)C(=O)[C@H](CCCCN)NC(=O)c2ccc(-c3ccc(Cl)cc3)cc2)C(=O)N[C@@H](C)C(=O)N1)C(=O)c1ncccn1` (stereo partly drawn) [Compound 194], the MIC came to 8 µg/mL (≈ 8.99 µM) in assay [1] (setting [4]), 8 µg/mL (≈ 8.99 µM) in assay [2] (setting [5]) and 4 µg/mL (≈ 4.5 µM) in the assay on MRSA COL (NRS100) (setting [5]).
For `CCN(CC(N)=O)C(=O)[C@H](C)NC(=O)[C@@H]1Cc2ccc(O)c(c2)-c2cc(ccc2O)[C@H](N(C)C(=O)[C@H](CCCCN)NC(=O)c2ccc(-c3ccc(Cl)cc3)cc2)C(=O)N[C@@H](C)C(=O)N1` [Compound 234], the values for the MIC (in assay [1] (setting [4]); in assay [2] (setting [5]); in the assay with MRSA COL (NRS100) (setting [5])) were 64 µg/mL (≈ 70.2 µM), 64 µg/mL (≈ 70.2 µM) and 8 µg/mL (≈ 8.78 µM), respectively.
As to `C[C@@H]1NC(=O)[C@@H](N(C)C(=O)[C@H](CCCCN)NC(=O)c2ccc(-c3ccc(Cl)cc3)cc2)c2ccc(O)c(c2)-c2cc(ccc2O)C[C@@H](C(=O)N[C@@H](C)/C=C/S(C)(=O)=O)NC1=O` [Compound 144], the MIC in assay [1] (setting [4]) came to 32 µg/mL (≈ 36.1 µM); in assay [2] it was 8 µg/mL (≈ 9.01 µM); in the assay on MRSA COL (NRS100), 2 µg/mL (≈ 2.25 µM).
For `COC(=O)/C=C/[C@H](C)NC(=O)[C@@H]1Cc2ccc(O)c(c2)-c2cc(ccc2O)[C@H](N(C)C(=O)[C@H](CCCCN)NC(=O)c2ccc(-c3ccc(Cl)cc3)cc2)C(=O)N[C@@H](C)C(=O)N1` [Compound 251] the same measures were more than 64 µg/mL, 64 µg/mL (≈ 73.8 µM) and 16 µg/mL (≈ 18.4 µM).

For the origin of these results see patent US10392422B2, “Macrocyclic broad spectrum antibiotics” (priority 2014, dated 2019).
